Experimental data: ChEMBL document CHEMBL4257509, “Effect of isouronium/guanidinium substitution on the efficacy of a series of novel anti-cancer agents” (Medchemcomm, 2018)
pIC50: −log10 of the molar value. The source made the active and inactive calls. No cut-off for these calls is given here.

Key:
MCF7 [1] = experiment: Effect on total ERK expression in human MCF7 cells after 16 hrs by Western blot analysis; type: cell-based; settings: mcf7, 16 h
Homo sapiens = species on record: Homo sapiens; experiment: Inhibition of ERK phosphorylation in human HL60 cells at 10 uM after 16 hrs by Western blot analysis; type: cell-based
HeLa = experiment: Cytotoxicity against human HeLa cells after 72 hrs by alamar blue assay; type: functional, cell-based
HL-60 [2] = experiment: Effect on total ERK expression in human HL60 cells after 16 hrs by Western blot analysis; type: cell-based; settings: hl-60, 16 h
MCF7 [3] = experiment: Cytotoxicity against human MCF7 cells after 72 hrs by alamar blue assay; type: functional, cell-based; settings: MCF7, 72 h
HL-60 [4] = experiment: Cytotoxicity against human HL60 cells after 72 hrs by alamar blue assay; type: functional, cell-based; settings: HL-60, 72 h
MCF7 [5] = experiment: Inhibition of ERK phosphorylation in human MCF7 cells at 10 uM after 16 hrs by Western blot analysis; type: cell-based

Row | SMILES | Activity (MCF7 [1]) | inhibition (Homo sapiens) | pIC50 (HeLa) | Activity (HL-60 [2]) | pIC50 (MCF7 [3]) | pIC50 (HL-60 [4]) | inhibition (MCF7 [5])
1 | Cl.Cl.N=C(Nc1cccc(Oc2ccc(OC(=N)N)cc2)c1)Nc1ccc(Cl)c(C(F)(F)F)c1 | Non-Toxic | Active | 5.47 | Non-Toxic | 5.33 | 5.26 | Active
2 | Cl.Cl.N=C(N)Nc1ccc(Oc2cccc(NC(=N)Nc3ccc(Cl)c(C(F)(F)F)c3)c2)cc1 | Non-Toxic | inactive | 5.02 | Non-Toxic | 5.01 | – | Active
3 | CNC(=O)c1cc(Oc2ccc(NC(=O)Nc3ccc(Cl)c(C(F)(F)F)c3)cc2)ccn1 [SORAFENIB] | Non-Toxic | Active | 5.34 | Non-Toxic | 5.51 | 5.59 | Active
4 | N=C(N)Oc1ccc(Oc2cccc(NC(=O)c3ccc(Cl)c(C(F)(F)F)c3)c2)cc1 | – | – | 4.08 | – | 4.54 | 4.45 | –
5 | N=C(N)Nc1ccc(Oc2cccc(NC(=O)c3ccc(Cl)c(C(F)(F)F)c3)c2)cc1 | – | – | 4.95 | – | 4.68 | 4.55 | –
